Data from patent publication US10011571B2, “Preparation method for aromatic heterocyclic compound used as selective JAK3 and/or JAK1 kinase inhibitor and application of aromatic heterocyclic compound” (SHENZHEN CHIPSCREEN BIOSCIENCES, LTD., priority 2014, dated 2018).

What was measured:
JAK3 = JAK3 (Homo sapiens (Human), UniProt P52333); assay: Z'-LYTE enzymatic activity detection, JAK3; type: biochemical; settings: test compound 30 nM; for inhibition at 0.03 µM: read-out: JAK3 % inhibitory rate @30 nM
JAK3, sequence (P52333 whole entry): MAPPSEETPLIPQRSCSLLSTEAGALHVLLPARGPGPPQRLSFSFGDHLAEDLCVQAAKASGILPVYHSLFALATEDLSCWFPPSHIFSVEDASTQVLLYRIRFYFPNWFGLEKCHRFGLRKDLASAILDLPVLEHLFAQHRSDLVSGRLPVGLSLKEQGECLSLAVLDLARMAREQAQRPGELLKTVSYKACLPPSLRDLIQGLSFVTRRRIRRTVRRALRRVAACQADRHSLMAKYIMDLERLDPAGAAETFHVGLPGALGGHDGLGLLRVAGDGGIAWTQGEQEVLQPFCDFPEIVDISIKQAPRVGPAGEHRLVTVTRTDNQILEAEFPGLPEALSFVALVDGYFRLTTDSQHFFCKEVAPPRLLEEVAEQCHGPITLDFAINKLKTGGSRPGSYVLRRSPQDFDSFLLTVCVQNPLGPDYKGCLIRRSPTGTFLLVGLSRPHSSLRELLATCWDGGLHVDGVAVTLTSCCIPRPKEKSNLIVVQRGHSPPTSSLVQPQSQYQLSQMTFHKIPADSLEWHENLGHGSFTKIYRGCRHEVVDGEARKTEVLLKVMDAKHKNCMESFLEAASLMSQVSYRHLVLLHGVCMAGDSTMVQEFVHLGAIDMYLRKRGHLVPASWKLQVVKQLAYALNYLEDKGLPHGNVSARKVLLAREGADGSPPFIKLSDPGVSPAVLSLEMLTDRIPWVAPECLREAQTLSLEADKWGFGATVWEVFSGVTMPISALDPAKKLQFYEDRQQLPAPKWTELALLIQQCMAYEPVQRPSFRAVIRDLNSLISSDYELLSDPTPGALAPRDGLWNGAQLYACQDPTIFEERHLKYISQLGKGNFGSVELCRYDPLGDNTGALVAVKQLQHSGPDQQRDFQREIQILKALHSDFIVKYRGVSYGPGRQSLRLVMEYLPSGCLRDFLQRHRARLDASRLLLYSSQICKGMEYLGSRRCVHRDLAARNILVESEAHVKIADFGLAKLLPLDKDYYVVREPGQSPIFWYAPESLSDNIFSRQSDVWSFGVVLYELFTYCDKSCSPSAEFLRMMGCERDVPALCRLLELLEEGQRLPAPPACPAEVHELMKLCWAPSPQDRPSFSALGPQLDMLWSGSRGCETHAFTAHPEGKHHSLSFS
Procedure: (§1) The basic principle of in vitro enzymatic activity assay is based on the difference between the intensities of fluorescence signals generated at different wavelengths (445 nm and 520 nm) from the phosphorylated substrate and non-phosphorylated substrate, in which the specific fluorescence-labeled substrate is phosphorylated by the kinase. When different test compounds are added, the inhibition of kinase activity is represented as the different degrees of substrate phosphorylation, and thus as the different intensities of fluorescence signal, based on which the inhibitory activity of the compound on the kinase can be calculated. Basic detection principle is illustrated in FIG. 1.
(§2) In an enzymatic inhibitory activity detection, GST-labeled human recombinant JAK kinases, including JAK1/PV4774, JAK2/PV4210, JAK3/PV3855, TYK2/PV4790 and their corresponding specific substrates, including Tyr6 (Z′-LYTE® Kinase Assay Kit-Tyrosine 6 Peptide, JAK1/PV4122), Tyr4 (Z′-LYTE® Kinase Assay Kit-Tyrosine 4 Peptide, JAK2/PV3193), Tyr4 (Z′-LYTE® Kinase Assay Kit-Tyrosine 4 Peptide, JAK3/PV3193), Tyr3 (Z′-LYTE® Kinase Assay Kit-[…], TYK2/PV3192) are used. In all tests, development reagent A (PV3297) was used as the test agent. All materials mentioned above were purchased from Invitrogen.
(§3) (1) Preparation: kinase reaction buffer (working solution) is prepared according to the instruction; a concentration gradient of the test compound is prepared by dilution using the kinase reaction buffer (the highest compound concentration is 10 μM for JAK1, JAK2, and TYK2 detection, and 1 μM for JAK3 detection, respectively).
(§4) (2) 10 μl of reaction system, comprising 2.5 μL test compound, 5 μL kinase reaction buffer and 2.5 μL ATP solution (provided by the kit), is mixed and reaction is performed at room temperature for 1 h.
(§5) (3) Controls, including a solvent control without the test compound, a negative control without ATP and a positive control with the phosphorylated substrate, are tested together with the detection. All tests are carried out in triplicate.
(§6) (4) After the enzymatic reaction, 5 μL pre-formulated development buffer is added, and reaction is performed at room temperature for 1 h. Subsequently, the reaction is terminated by adding 5 μL stop buffer.
(§7) (5) The fluorescence signal in each well is detected by an Ascent Fluoroskan FL reader (Thermo Labsystems) at an excitation wavelength of 400 nm, and emission wavelengths of 445 nm and 520 nm. The proportion of substrate phosphorylation is obtained by reference to the fluorescence signal intensity C445/F520.
(§8) (6) The enzymatic inhibitory rate of the test compound can be calculated based on the following equation: Inhibitory rate (%)=1−the proportion of substrate phosphorylation in the detection well/the proportion of substrate phosphorylation in the solvent control well. The half-inhibitory concentration (IC50) can be calculated using an IC50 calculator based on the inhibitory rates of phosphorylation for the test compounds at different concentration gradients.
(§9) Based on the above method, the compounds described herein are enzymatically evaluated in vitro for JAKs (the concentration of the test compound is 30 nM for JAK3 and JAK2 test, and 300 nM for JAK1 test) using Xeljanz (tofacitinib citrate) as the positive control.

JAK2 = JAK2 (Homo sapiens (Human), UniProt O60674); assay: Z'-LYTE enzymatic activity detection, JAK2; type: biochemical; settings: test compound 30 nM; for inhibition at 0.03 µM: read-out: JAK2 % inhibitory rate @30 nM
JAK2, sequence (O60674 whole entry): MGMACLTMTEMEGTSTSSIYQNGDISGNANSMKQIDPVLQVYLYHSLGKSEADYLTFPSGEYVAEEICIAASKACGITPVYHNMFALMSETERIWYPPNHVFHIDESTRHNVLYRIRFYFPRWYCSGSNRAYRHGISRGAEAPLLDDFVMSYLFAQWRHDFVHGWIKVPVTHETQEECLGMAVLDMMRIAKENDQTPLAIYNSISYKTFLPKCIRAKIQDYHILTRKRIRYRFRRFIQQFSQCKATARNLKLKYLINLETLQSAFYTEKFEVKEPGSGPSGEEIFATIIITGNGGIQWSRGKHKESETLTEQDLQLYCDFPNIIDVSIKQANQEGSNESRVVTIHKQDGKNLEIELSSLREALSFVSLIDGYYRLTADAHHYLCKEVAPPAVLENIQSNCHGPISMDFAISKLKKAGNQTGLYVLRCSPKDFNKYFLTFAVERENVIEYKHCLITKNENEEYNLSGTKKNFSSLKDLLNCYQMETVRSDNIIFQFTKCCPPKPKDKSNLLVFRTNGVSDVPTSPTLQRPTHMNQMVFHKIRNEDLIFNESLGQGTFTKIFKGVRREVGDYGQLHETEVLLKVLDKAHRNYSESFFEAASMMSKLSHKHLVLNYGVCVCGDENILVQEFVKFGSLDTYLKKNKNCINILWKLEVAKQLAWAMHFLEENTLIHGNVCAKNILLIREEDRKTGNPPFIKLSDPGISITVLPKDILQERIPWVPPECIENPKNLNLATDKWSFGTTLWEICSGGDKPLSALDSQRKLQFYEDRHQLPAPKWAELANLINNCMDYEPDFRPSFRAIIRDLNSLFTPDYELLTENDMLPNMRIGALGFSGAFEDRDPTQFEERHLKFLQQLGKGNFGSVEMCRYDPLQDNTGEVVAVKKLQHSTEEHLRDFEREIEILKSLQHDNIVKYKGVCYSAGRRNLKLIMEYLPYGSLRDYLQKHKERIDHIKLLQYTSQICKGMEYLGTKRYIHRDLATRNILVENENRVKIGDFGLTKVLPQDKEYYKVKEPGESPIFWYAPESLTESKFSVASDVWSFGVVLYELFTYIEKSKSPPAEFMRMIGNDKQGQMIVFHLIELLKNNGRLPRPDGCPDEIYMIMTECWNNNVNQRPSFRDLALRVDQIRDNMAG
Procedure: as §1, §2, §3, §4, §5, §6, §7, §8, §9

CTLL-2 cells = assay: Cell growth activity assay (MTS), CTLL-2 cell model; type: cell-based, mouse; settings: 24 h; for activity at 0.3 µM: Mus musculus, CTLL-2, 300 nM, read-out: CTLL-2 % growth rate @300 nM
From the text: (§10) MTS assay is a routine method for cell toxicity detection. The basic principle is based on the capacity of dehydrogenase in the mitochondria of living cells to reduce a novel yellow […] MTS to formazan, so that the amount of living cells is proportional to the amount of formazan product by detecting the absorbance at 490 nm (OD), thereby speculating the amount of living cells according to the OD value, and understanding the capacity of the test compound to inhibit the growth of cells or to kill the cells.
In this experiment, mouse T-cell line CTLL-2 was used. The proliferation and growth of this cell line strongly depend on IL-2, and it is commonly used to evaluate the active titer of exogenous IL-2. By inhibiting the activity of kinase JAK1/3, the proliferation of CTLL-2 can be inhibited under in vitro culture. The activation and proliferation of T-cell is also important pathological characteristics for various immunological diseases. Thus, this model is also pathologically related.
By comparing the change of absorbance generated by the cells treated by the test compounds using MTS assay, the growth inhibitory activity of the test compounds on the model cells can be realized, and thereby potential inhibitory activity of the compounds on JAK1/3 pathway can be evaluated.
(§11) MTS is performed according to routine procedure in a 96-well plate.
(§12) The model cells are inoculated into each well of the 96-well plate at an appropriate concentration (about 20,000 cells/well). After 24 h, the test compounds are added at different concentration gradients (the highest concentration of 10 μM). A solvent control (DMSO) and a negative control are also performed at the same time. Each experiment is repeated for 3 times. The cells are detected after cultured for another 24 h.
CTLL-2 is a suspended cell. After incubation, 20 μL pre-formulated mixture of MTS and PMS (in a ratio of 20:1) is directly added to each well. After incubation at 37° C. for 2 h, it is then detected by a microplate reader (490 nm).
The effect of the test compound on cell growth is calculated by comparing the change of OD values between the test well and the solvent control well, after subtracting the background of the negative control. For the test compounds at different concentration gradients, the inhibitory rates on the growth of model cells and their half-growth inhibitory concentrations (GI50) are each calculated.
Based on the above method, cytological evaluation is performed to the compounds described herein (for the detection of CTLL-2 cell, the concentration of the test compound is 300 nM; for the detection of HeLa and HUVEC cell, the concentration of the test compound is […]).

JAK1 = JAK1 (Homo sapiens (Human), UniProt P23458); assay: Z'-LYTE enzymatic activity detection, JAK1; type: biochemical; settings: test compound 300 nM; for inhibition at 0.3 µM: read-out: JAK1 % inhibitory rate @300 nM
JAK1, sequence (P23458 whole entry): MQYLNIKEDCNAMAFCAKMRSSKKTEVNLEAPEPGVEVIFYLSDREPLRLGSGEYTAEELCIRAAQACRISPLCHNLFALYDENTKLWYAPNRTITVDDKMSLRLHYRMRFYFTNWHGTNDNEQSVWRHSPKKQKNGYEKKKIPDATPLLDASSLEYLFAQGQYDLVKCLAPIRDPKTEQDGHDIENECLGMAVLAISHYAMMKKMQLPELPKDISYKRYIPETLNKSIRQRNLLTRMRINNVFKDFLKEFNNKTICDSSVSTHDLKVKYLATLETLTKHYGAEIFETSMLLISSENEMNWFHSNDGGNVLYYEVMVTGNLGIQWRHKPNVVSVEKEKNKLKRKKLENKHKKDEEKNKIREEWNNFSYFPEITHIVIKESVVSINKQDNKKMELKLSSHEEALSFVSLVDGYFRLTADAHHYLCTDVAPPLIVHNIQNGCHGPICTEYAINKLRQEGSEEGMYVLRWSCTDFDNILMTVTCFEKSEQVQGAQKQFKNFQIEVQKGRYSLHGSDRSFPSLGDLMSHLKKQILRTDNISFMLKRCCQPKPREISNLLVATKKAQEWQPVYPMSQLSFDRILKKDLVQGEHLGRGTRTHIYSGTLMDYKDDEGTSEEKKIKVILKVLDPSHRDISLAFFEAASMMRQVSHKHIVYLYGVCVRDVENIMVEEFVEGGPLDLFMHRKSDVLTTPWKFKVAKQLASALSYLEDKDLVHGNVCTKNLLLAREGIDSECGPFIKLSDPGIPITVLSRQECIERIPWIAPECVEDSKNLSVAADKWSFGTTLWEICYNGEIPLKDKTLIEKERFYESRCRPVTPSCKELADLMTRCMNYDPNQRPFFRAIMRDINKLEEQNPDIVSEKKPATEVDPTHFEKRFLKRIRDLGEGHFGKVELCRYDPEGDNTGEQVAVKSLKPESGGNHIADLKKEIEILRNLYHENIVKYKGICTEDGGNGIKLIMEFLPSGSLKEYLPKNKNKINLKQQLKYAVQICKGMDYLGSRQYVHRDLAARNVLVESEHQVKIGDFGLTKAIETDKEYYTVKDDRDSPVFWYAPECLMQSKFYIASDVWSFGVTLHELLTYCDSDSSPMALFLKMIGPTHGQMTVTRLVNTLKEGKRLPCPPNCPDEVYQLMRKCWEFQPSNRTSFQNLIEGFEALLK
Procedure: as §1, §2, §3, §4, §5, §6, §7, §8, §9

HeLa cells = assay: Cell growth activity assay (MTS), HeLa cell model; type: cell-based, human; design: activity: dose or concentration left out as unconfirmed; settings: 72 h; for activity: Homo sapiens, HeLa, read-out: HeLa % growth rate
From the text: as §10
HeLa cell is a human cervical cancer cell line, and belongs to epithelial tumor cell line; HUVEC is a human umbilical vein endothelial cell, and belongs to primary endothelial cell; both types of cells express all subtypes except for JAK3.
The change of JAK kinase activity has no significant influence on other cell types except for the immune cells, and both cell models mentioned above are mainly used to evaluate whether there are any other kinase targets besides JAK kinases or there are nonselective cell toxicities.
In this experiment, a cultured cell model is incubated with the test compounds at different concentrations for a specific duration. The effect of the treatment by the test compound on the growth of cells is detected using MTS assay.
as §11
as §12, with “(about 5000” for “(about 20,000”, “highest final” for “highest”, “concentration is 40” for “concentration of 10”, “another 72” for “another 24”
After all culture medium is aspirated out of the well, 100 μL fresh medium and 20 μL pre-formulated mixture of MTS and PMS (in a ratio of 20:1) are added to each well. After incubation at 37° C. for 2 h, it is then detected by a microplate reader (490 nm).
The cell growth inhibitory rate and GI50 of the test compound are calculated as above.
Based on the above method, cytological evaluation is performed to the compounds described herein (for the detection of CTLL-2 cell, the concentration of the test compound is 300 nM; […]).

JAK3 RV (ratio between the inhibitory rate of the test compound and that of Xeljanz) (JAK3) | inhibition at 0.03 µM (JAK3) [%] | inhibition at 0.03 µM (JAK2) [%] | JAK1 RV (ratio between the inhibitory rate of the test compound and that of Xeljanz) (JAK1) | inhibition at 0.3 µM (JAK1) [%] | JAK3 % inhibitory rate @30 nM (JAK3) [%] | JAK2 % inhibitory rate @30 nM (JAK2) [%] | JAK1 % inhibitory rate @300 nM (JAK1) [%] | SMILES | activity at 0.3 µM (CTLL-2 cells) [%] | activity (HeLa cells) [%] | CTLL-2 % growth rate @300 nM (CTLL-2 cells; 300 nM) [%] | HeLa % growth rate @10 μM (HeLa cells) [%]
1.01 | 84 | 0 | 0.53 | 45 | – | – | – | C=CC(=O)N(C)c1cc(Nc2ncc(Cl)c(NCCCNC(=O)c3cccc(C#N)c3)n2)ccc1F [Example 95, N-(3-(5-chloro-2-(4-fluoro-3-(N-methylacrylamido)phenylamino)pyrimidinyl-4-amino)propyl)-3-cyanobenzamide] | 3 | 3 | – | –
1.04 | 86 | 0 | 0.87 | 74 | – | – | – | C=CC(=O)N(C)c1cc(Nc2ncc(Cl)c(NCCCNC(=O)c3ccc(C(F)(F)F)c(F)c3)n2)ccc1F [Example 103, N-(3-(5-chloro-2-(4-fluoro-3-(N-methylacrylamido)phenylamino)pyrimidinyl-4-amino)propyl)-3-fluoro-4-trifluoromethylbenzamide] | 3 | 55 | – | –
1.01 | 84 | 0 | 0.79 | 67 | – | – | – | C=CC(=O)N(C)c1cc(Nc2ncc(Cl)c(NCCCNC(=O)c3cc(F)c(F)c(F)c3F)n2)ccc1F [Example 107, N-(3-(5-chloro-2-(4-fluoro-3-(N-methylacrylamido)phenylamino)pyrimidinyl-4-amino)propyl)-2,3,4,5-tetrafluorobenzamide] | 2 | 59 | – | –

The next lines start with the compound.

SMILES | JAK3 RV (ratio between the inhibitory rate of the test compound and that of Xeljanz) (JAK3) | inhibition at 0.03 µM (JAK3) [%] | inhibition at 0.03 µM (JAK2) [%] | JAK1 RV (ratio between the inhibitory rate of the test compound and that of Xeljanz) (JAK1) | inhibition at 0.3 µM (JAK1) [%] | JAK3 % inhibitory rate @30 nM (JAK3) [%] | JAK2 % inhibitory rate @30 nM (JAK2) [%] | JAK1 % inhibitory rate @300 nM (JAK1) [%] | activity at 0.3 µM (CTLL-2 cells) [%] | activity (HeLa cells) [%] | CTLL-2 % growth rate @300 nM (CTLL-2 cells; 300 nM) [%] | HeLa % growth rate @10 μM (HeLa cells) [%]
C=CC(=O)N(C)c1cc(Nc2ncc(Cl)c(NCCCNC(=O)c3ccc(C(C)=O)cc3)n2)ccc1F [Example 111, 4-acetyl-N-(3-(5-chloro-2-(4-fluoro-3-(N-methylacrylamido)phenylamino)pyrimidinyl-4-amino)propyl)benzamide] | 0.99 | 82 | 0 | 0.19 | 16 | – | – | – | 3 | 67 | – | –
C=CC(=O)N(C)c1cc(Nc2ncc(Cl)c(NCCCNC(=O)c3ccc(C(F)F)cc3)n2)ccc1F [Example 115, N-(3-(5-chloro-2-(4-fluoro-3-(N-methylacrylamido)phenylamino)pyrimidinyl-4-amino)propyl)-4-difluoromethylbenzamide] | 0.98 | 81 | 0 | 0.49 | 42 | – | – | – | 3 | 71 | – | –
C=CC(=O)N(C)c1cc(Nc2ncc(Cl)c(NCCCCCCNC(=O)c3ccc(C#N)cc3)n2)ccc1F [Example 123, N-(6-(5-chloro-2-(4-fluoro-3-(N-methylacrylamido)phenylamino)pyrimidinyl-4-amino)hexyl)-4-cyanobenzamide] | 0.95 | – | – | – | – | 79 | 0 | 0 | – | – | 5 | 5
